“Also recorded” adds a separate entry of the source. Like-named read-outs stand apart in the source and are kept apart here.
Legend:
[1] = previously reported value; read-out: zinc dissociation constant (reported); cited from earlier work
[2] = cited from earlier work; for Brightness (ε*Φ/1000) / Extinction Coefficient (ε) / Quantum Yield (Φ) / λAbs (max) / λEm (max): values reported in Que et al.
MII egg = assay: Confocal imaging of zinc in live MII eggs; format: cell-based, mouse
From the text: [formula] [formula] [formula] where r(t) is the anisotropy, P(t) is the polarization, Ivv and Ivh are intensities with polarization in the vertical plane and the excitation in the vertical and horizontal planes respectively, Ihv and Ihh are intensities with polarization in the horizontal plane and the excitation in the vertical and horizontal planes respectively, and G is a g-factor that corrects for instrument sensitivity in the horizontal and vertical planes. Metal content of NMR samples. Inductively coupled plasma mass spectrometry (ICP-MS) was performed on a Thermo iCAP Q ICP-MS. 1 mg/mL of ZincBY-1 or ZincBY-4 in acetonitrile-d3 or acetonitrile-d3 only was evaporated overnight at 70° C. 150 μL of HNO3 was added and the samples were digested overnight at 70° C. Samples were diluted to a final nitric acid concentration of 3%. ICP-MS was operated in collision cell mode to reduce polyatomic interferences. An internal standard comprising ^7Li, ^89Y, and ^115In was used. Each sample was acquired using one survey run (10 sweeps) and three main (peak jumping) runs (100 sweeps). Data was fit to a standard curve using a standard containing ^45Sc, […], ^51V, ^52Cr, ^55Mn, ^56Fe, ^59Co, ^58Ni, ^63Cu, and ^64Zn from 5 ppb to 1000 ppb. Only ^56Fe and ^64Zn were detected in the samples above background levels. Computational Analysis of ZincBY-1 and ZincBY-4. All density functional theory (DFT) calculations were performed using version 4.0.1 of the ORCA electronic structure package (Ref. B6; incorporated by reference in its entirety). Guided by the results of earlier studies on BODIPY derivatives (Ref. B7; incorporated by reference in its entirety), the PBE0 functional (Refs. B8-B10; incorporated by reference in their entireties) was used to optimize the geometries of all molecules studied, while time dependent DFT (TD-DFT) calculations and charge analysis through the CHarges from ELectrostatic Potentials using a Grid-based method (CHELPG) (Ref. B11; incorporated by reference in its entirety) were performed with the oB97-XD3 functional (Ref. B12; incorporated by reference in its entirety). All calculations utilized the def2-TZVP basis set (Ref B13; incorporated by reference in its entirety) with the resolution of the identity approximation coupled with the chain of spheres exchange method (RIJCOSX) (Refs. B14-B16; incorporated by reference in their entireties), using the def2/J auxiliary basis (Ref B17; incorporated by reference in its entirety). Implicit solvation effects were included through the conductor like polarizable continuum model (CPCM) (Ref B18; incorporated by reference in its entirety). Calculated spectra were broadened by Gaussians of width 0.2 eV, and red shifted by 0.64 eV to better match the experimental spectra per Momeni and Brown (Ref. B7; incorporated by reference in its entirety). Animals and Egg Collection Mouse. To collect MII-arrested eggs, female mice of at least 5 weeks in age were injected with 5 IU pregnant mare serum gonadotropin (PMSG) followed by 5 IU human chorionic gonadotropin (hCG) 48 hours later. Intact cumulus-oocyte complexes (COCs) were isolated from the oviducts 15 hours after the administration of hCG. Cumulus cells were denuded using 0.3% (w/v) hyaluronidase. Animals were treated in accordance with the US National Institutes of Health Guide for the Care and Use of Laboratory Animals. Food and water were given ad libitum. The Northwestern University Institutional Animal Care and Use Committee approved all the protocols. C. Elegans. Wildtype strain Bristol N2 was used as a control strain in fluorescence microscopy experiments. EU1067: unc-119(ed3) ruIs32[unc-119(+) pie-1^promoter::GFP::H2B] III; ruIs57[unc-119(+) pie-P1^promoter:GFP::tubulin] was used as a marker for cortical granules in fluorescence microscopy experiments. EU1067 was provided by the Caenorhabditis Genetics Center (CGC). […]

C. elegans = assay: Confocal imaging of zinc in C. elegans worms; format: in vivo
From the text: [formula] [formula] where r(t) is the anisotropy, P(t) is the polarization, Ivv and Ivh are intensities with polarization in the vertical plane and the excitation in the vertical and horizontal planes respectively, Ihv and Ihh are intensities with polarization in the horizontal plane and the excitation in the vertical and horizontal planes respectively, and G is a g-factor that corrects for instrument sensitivity in the horizontal and vertical planes. Metal content of NMR samples. Inductively coupled plasma mass spectrometry (ICP-MS) was performed on a Thermo iCAP Q ICP-MS. 1 mg/mL of ZincBY-1 or ZincBY-4 in acetonitrile-d3 or acetonitrile-d3 only was evaporated overnight at 70° C. 150 μL of HNO3 was added and the samples were digested overnight at 70° C. Samples were diluted to a final nitric acid concentration of 3%. […] Only ^56Fe and ^64Zn were detected in the samples above background levels. […] Calculated spectra were broadened by Gaussians of width 0.2 eV, and red shifted by 0.64 eV to better match the experimental spectra per Momeni and Brown (Ref. B7; incorporated by reference in its entirety). […] Wildtype strain Bristol N2 was used as a control strain in fluorescence microscopy experiments. […] III; ruIs57[unc-119(+) pie-P1^promoter:GFP::tubulin] was used as a marker for cortical granules in fluorescence microscopy experiments. […]

Compound: COc1ccc2n1[B-](F)(F)[N+]1=C(N(CCN(Cc3ccccn3)Cc3ccccn3)Cc3ccccn3)C=CC1=C2c1c(C)cc(C)cc1C [ZincBY-1, reference compound]
- Kd [1]: 2.6 nM
- Brightness (ε*Φ/1000) ([2]; Apo): 0.57(6) M^−1cm^−1
- Extinction Coefficient (ε) ([2]; Apo): 1.1(0.05) × 10^4 M^−1cm^−1
- Quantum Yield (Φ) ([2]; Apo): 0.052(3)
- λAbs (max) ([2]; Apo): 533 nm
- λEm (max) ([2]; Apo): 560 nm
- Brightness (ε*Φ/1000) ([2]; Zn-bound): 2.6(5) M^−1cm^−1
- Extinction Coefficient (ε) ([2]; Zn-bound): 2.0(3) × 10^4 M^−1cm^−1
- Quantum Yield (Φ) ([2]; Zn-bound): 0.13(2)
- λAbs (max) ([2]; Zn-bound): 533 nm
- λEm (max) ([2]; Zn-bound): 543 nm
- Stokes shift ([2]; literature (Ref. A18)): 11 nm
- excitation at 488 nm in the MII egg (MII egg; 50 nM probe): Only ZincBY-4 was readily excited at 488 nm
- excitation at 552 nm in the MII egg (MII egg; 50 nM probe): both probes were excitable at 552 nm

Compound: CC(=O)NCCOc1ccc2n1[B-](F)(F)[N+]1=C(N(CCN(Cc3ccccn3)Cc3ccccn3)Cc3ccccn3)C=CC1=C2c1c(C)cc(C)cc1C [ZincBY-4, N-(2-((7-((2-(bis(pyridin-2-ylmethyl)amino)ethyl)(pyridin-2-ylmethyl)amino)-5,5-difluoro-10-mesityl-5H-5λ4,6λ4-dipyrrolo[1,2-c:2′,1′-f][1,3,2]diazaborinin-3-yl)oxy)ethyl)acetamide]
- fluorescence pattern in stained worms (C. elegans; ZincBY-4 stained worms): pattern of increasing fluorescence intensity as oocytes progress through the gonad
- spectral overlap with GFP in C. elegans (C. elegans; single excitation at 488 nm): small amount of ZincBY-4 emission detected in the 495-530 nm emission channel; also recorded: very little overlap of ZincBY-4 in the GFP detection channel
- excitation at 488 nm in the MII egg (MII egg; 50 nM probe): only ZincBY-4 exhibits a strong fluorescence intensity upon excitation at 488 nm; also recorded: Only ZincBY-4 was readily excited at 488 nm
- excitation at 552 nm in the MII egg (MII egg; 50 nM probe): both probes were excitable at 552 nm
- region of fluorescence emission in MII eggs (MII egg; 50 nM probe, 488 nm excitation): 575-750 nm
- effect of TPEN on fluorescence in stained MII eggs (MII egg; TPEN 5 μM): loss of fluorescence signal in the vesicle region; also recorded: loss in fluorescence was observed
- spectral overlap with TubulinTracker Green in the MII egg (MII egg; single excitation at 488 nm): virtually no ZincBY-4 emission detected in the 495-530 nm emission channel; also recorded: virtually no spectral overlap between the two probes
- fluorescence change on chemical activation (ionomycin) of MII eggs (MII egg; time lapse imaging, ionomycin 5 μM): increase in fluorescence intensity outside the egg while fluorescence intensity is lost in the periphery region; also recorded: both loss of zinc from the zinc granule region and increase of zinc outside the cell without the need of a second probe was observed
- usable working concentration (MII egg; where other probes require micromolar amounts): 50 nM
- Stokes shift in cells (MII egg; within cells): ~100 nm

From patent publication US11953435B2, “Zinc-responsive fluorophores” (Northwestern University, priority 2019, dated 2024)
